Laboratory results reported in the CheMixHub viscosity set.

Experiment: xn = mol fraction of the nth substance listed
Conditions: 101 kPa

CCNc1ccccc1 + COc1ccccc1
viscosity [mPa·s]
Conditions	293.15 K	298.15 K	303.15 K	308.15 K	313.15 K	318.15 K	323.15 K
x1 = 0.0504	1.109	1.026	0.948	0.881	0.807	0.764	0.709
x1 = 0.1074	1.15	1.059	0.977	0.907	0.83	0.784	0.727
x1 = 0.1541	1.193	1.095	1.009	0.935	0.855	0.805	0.746
x1 = 0.2094	1.234	1.13	1.039	0.961	0.878	0.825	0.763
x1 = 0.2506	1.275	1.164	1.067	0.985	0.9	0.844	0.78
x1 = 0.3006	1.318	1.2	1.098	1.012	0.924	0.864	0.798
x1 = 0.3502	1.364	1.237	1.13	1.04	0.949	0.885	0.816
x1 = 0.4029	1.416	1.279	1.166	1.071	0.976	0.908	0.837
x1 = 0.4504	1.466	1.32	1.201	1.1	1.002	0.931	0.857
x1 = 0.499	1.519	1.363	1.24	1.133	1.031	0.955	0.878
x1 = 0.5504	1.58	1.412	1.281	1.169	1.063	0.981	0.902
x1 = 0.5911	1.64	1.461	1.322	1.204	1.094	1.007	0.924
x1 = 0.6505	1.711	1.517	1.371	1.245	1.131	1.038	0.951
x1 = 0.7027	1.783	1.578	1.421	1.288	1.167	1.069	0.978
x1 = 0.7493	1.853	1.635	1.47	1.331	1.203	1.098	1.004
x1 = 0.7972	1.936	1.699	1.523	1.375	1.242	1.131	1.032
x1 = 0.8509	2.024	1.766	1.578	1.421	1.283	1.164	1.06
x1 = 0.8913	2.103	1.831	1.632	1.466	1.322	1.196	1.087
x1 = 0.9501	2.191	1.9	1.688	1.514	1.363	1.23	1.116
